In patent publication US7008922B2, “H-Y antigen” (Rijksuniversiteit te Leiden, priority 1995, dated 2006):
Where a SMILES comes first, the peptide text is derived from it.

Experiments:
purified HLA-B7 = purified HLA-B7 (Homo sapiens, UniProt P01889); experiment: Inhibition of binding of iodinated standard peptide to purified HLA-B7; details: iodinated endogenous B7 peptide […]
Procedure: Binding of synthetic peptides to purified HLA-B7. HPLC-purified test peptides were assayed for the ability to inhibit the binding of the iodinated endogenous B7 peptide […] (SEQ ID NO:4) to purified HLA-B7 as previously described (40). (♦), SMCY peptide […] (SEQ ID NO:1); (▪) SMCX peptide […] (SEQ ID NO:3); (Δ), […] (SEQ ID NO:5), an endogenous peptide bound to HLA-B7; (x) […] (SEQ ID NO.6), an endogenous peptide bound to HLA-A2.1 as the negative control.
The corresponding peptide derived from the sequence of the X chromosomal homolog, SMCX, has substitutions of A for S at position 3 and Q for R at position 8. […] Thus, the significant difference in the ability of the SMCY and SMCX peptides to sensitize targets for T cell recognition is almost entirely due to the fine specificity of the T cell receptor, rather than to differences in MHC binding affinities. The SMCX peptide is also present in naturally processed peptide extracts of HLA-B7, although its abundance is only 25% of that of the SMCY peptide (33). Based on all of this information, it is concluded that the peptide epitopes representing the HLA-B7 restricted H-Y antigen is derived from the protein encoded by SMCY, which is also true for the HLA-A2.1 recognized peptide, also encoded by SMCY.

T2-B7 cells = experiment: H-Y epitope reconstitution, 51Cr release assay with HLA-B7-restricted H-Y specific CTL clone 5W4; assay type: cell-based, human; details: T2-B7 cells sensitized with synthetic peptide, effector to target ratio 10 to 1, read-out: peptide concentration at which half-maximal lysis was achieved
Excerpt: Reconstitution of the H-Y epitope with HPLC fractionated peptides extracted from HLA-B7 molecules. (A) HLA-B7 molecules were immunoaffinity purified from […] H-Y positive JY cells. Peptides were eluted from B7 molecules with 10% acetic acid, pH 2.2, filtered through a 10 kD cut-off filter and fractionated on a C18 reverse phase column. Buffer A was 0.1% heptafluorobutyric acid (HFBA); buffer B was 0.1% HFBA in acetonitrile. The gradient consisted of 100% buffer A (0–20 mm), 0 to 12% buffer B (20 to 25 mm), and 12 to 50% buffer B (25 to 80 mm) at a flow rate of 200 μl/min. 60 fractions of 200 μl each were collected from 20 to 80 mm. […]
H-Y epitope reconstitution with synthetic peptides. […] Purity was established on an analytical RP column and the quantity of each peptide was confirmed by comparing the area of the peak with that of a standard peptide. […]
To isolate endogenously processed H-Y peptides, HLA-B7 molecules were purified by affinity chromatography from the H-Y positive, B lymphoblastoid cell line, JY (29). […] Although a single active peak of reconstituting activity was also observed from this separation (FIG. 1B, fraction 14, 15 and 16), it still contained more than 100 distinct peptide species, as assessed by electrospray ionization tandem mass spectrometry. […]

[1] = tested on: HLA-A2.1 restricted H-Y specific T cell clones; experiment: H-Y reconstitution assay with HLA-A2.1 restricted H-Y specific T cell clones R416 and 1R35; assay type: cell-based, human
Excerpt: HLA-A2 molecules were immunoaffinity purified from 10^10 DM cells. Peptides were eluted according to the methodology as described in legend to FIG. 1.
In the same manner as described above for the HLA-B7 restricted T-cell clone, the peptide recognized by two HLA-A2.1 T-cell clones was identified. In short the HLA-A2.1 restricted H-Y specific T cell clone R416 recognizes HPLC fraction 34, the HLA-A2.1 restricted H-Y specific T clone 1R35 recognizes HPLC fractions 36 and 39 (FIG. 6).

Row | IC50 (purified HLA-B7) | Molecule | EC50 (T2-B7 cells) | recognition by HLA-A2.1 restricted H-Y specific T cell clones [1]
1 | 140 nM | CC(C)C[C@H](NC(=O)[C@H](CCC(=O)O)NC(=O)[C@H](C)NC(=O)[C@H](CCC(N)=O)NC(=O)[C@H](C)NC(=O)[C@H](CCCCN)NC(=O)[C@H](CC(=O)O)NC(=O)[C@@H](NC(=O)[C@H](C)NC(=O)[C@@H]1CCCN1C(=O)[C@@H](N)CO)C(C)C)C(=O)O [SMCX peptide, reference compound] (H-SPAVDKAQAEL-OH) |  | 
2 | 34 nM | CC(C)C[C@H](NC(=O)[C@H](CCC(=O)O)NC(=O)[C@H](C)NC(=O)[C@H](CCCNC(=N)N)NC(=O)[C@H](C)NC(=O)[C@H](CCCCN)NC(=O)[C@H](CC(=O)O)NC(=O)[C@@H](NC(=O)[C@H](CO)NC(=O)[C@@H]1CCCN1C(=O)[C@@H](N)CO)C(C)C)C(=O)O [SMCY peptide] (H-SPSVDKARAEL-OH; N-terminus and C-terminus assumed) | 0.01 nM | 
3 |  | FIDSYICQV (listed as Homo sapiens) [SMCY-encoded peptide recognized by HLA-A2.1 restricted H-Y specific T cell clones] |  | recognize
